Source: patent US11360080B2, “AhR-ROR-γt complex as a biomarker and therapeutic target for autoimmune disease and IL-17A-associated disease” (NATIONAL HEALTH RESEARCH INSTITUTES, priority 2018, dated 2022)
Counter-ions that a name gives are not always drawn.

How the values were obtained:
GLK−IQGAP1 interaction = molecular target: T1, GLK−IQGAP1 interaction (Homo sapiens, UniProt Q8IVH8); experiment: FRET assay of HEK293T cells with CFP- and YFP-fused GLK and IQGAP1; assay type: cell-based
T1 construct: expressed in transfected cells; host or cells: HEK293T
Method: (A) Silver-stained gel of anti-Flag immunoprecipitates from HEK293T cells transfected with empty vector or Flag-tagged GLK in the presence or absence of the tyrosine phosphatase inhibitor pervanadate (25 μM). Arrows indicate the positions of GLK or GLK-interacting proteins. (B) Four pervanadate-induced tyrosine phosphorylation residues of GLK proteins were listed. (C and D) Co-immunoprecipitation of anti-Flag (C) or anti-Myc (D) immunocomplexes from lysates of HEK293T cells transfected with Flag-tagged GLK, Myc-tagged IQGAP1, or both plasmids. The whole-cell lysate immunoblots before immunoprecipitation (Pre-IP) are shown at the bottom of each panel. β-Tubulin was used as the loading control. (E) Co-immunoprecipitation of anti-Flag immunocomplexes from lysates of HEK293T cells transfected with either Flag-tagged GLK or Flag-tagged GLK mutant (Y366F, Y379F, Y574F, or Y735F). […]
FRET signal in live cells was detected by EnVision 2104 Multilabel Plate Reader (Perkin Elmer). The reaction was excited by light passing through a 430-nm filter (with 8 nm bandwidth), and the intensity of emitted fluorescence passing through a 530-nm filter (with 8 nm bandwidth) was recorded. If the protein-protein pair is in close proximity (1-10 nm), a 530-nm signal will be detected. […]

TC-1 lung cancer cells = experiment: TC-1 lung cancer xenograft model in wild-type mice; assay type: in vivo, mouse; settings: i.v. C1 10 uM, C2 17 uM every 3 days for 15 days
Method: (A) Murine TC-1 lung cancer cells were subcutaneously inoculated into the right flank of wild-type mice for establishing a TC-1 xenograft model. TC-1 cells inoculated mice were intravenously injected with PBS, C1 (verteporfin) (10 uM), or C2 (alexidine dihydrochloride) (17 uM) every 3 days for 15 days. (B) Photographs of excised TC-1 lung cancers after receiving PBS, C1 (verteporfin) (10 uM), or C2 (17 uM) treatment. (C) The growth (mean tumor volume) of tumor was measured for 15 days. The TC-1 tumor size progression as a function of time post-administration with C1 or C2. N.D., not detectable. C1 denotes verteporfin; C2 denotes alexidine dihydrochloride.

EAE in wild-type mice = experiment: Experimental autoimmune encephalomyelitis (EAE) induction in wild-type mice; assay type: in vivo, mouse; settings: C1 0.556 nmole/g, C2 0.085 nmole/g; for serum IL-17A levels in EAE: day 16
Source text: (A to C) Effect of the GLK inhibitor C1 (verteporfin) administration (0.556 nmole/g every 3 days for 30 days) on serum IL-17A and autoantibodies in Lck-GLK Tg mice. (B) ELISA of indicated serum cytokines in Lck-GLK Tg mice treated with C1 (verteporfin) or PBS. (C) ELISA of serum autoantibodies in Lck-GLK Tg mice treated with C1 (verteporfin) or PBS. Means±SEM are shown. (D) Experimental autoimmune encephalomyelitis (EAE) induction in wild-type mice treated with PBS, or the GLK inhibitor C1 (verteporfin) and C2. Clinical scores are presented on a scale of 1 to 5 (left panel). ELISA of IL-17A in the sera from MOG-immunized mice at day 16 (right panel). (E) Collagen-induced arthritis (CIA) induction in wild-type mice treated with the GLK inhibitor C1 (verteporfin) or PBS. Clinical scores are presented on a scale of 1 to 16 (left panel). ELISA of IL-17A in the sera from collagen-immunized mice at day 28. Means±SEM are shown. *, P value<0.05; **, P value<0.01; ***, P value<0.001 (two-tailed Student's […]). C1 denotes verteporfin; C2 denotes alexidine dihydrochloride.
Moreover, overproduction of autoantibodies in Lck-GLK Tg mice were also abolished by C1 (verteporfin) treatment (FIG. 10C). […] To further verify that the GLK inhibitors also works in IL-17A-mediated animal models, we challenged wild-type mice with C1 (verteporfin) or C2 (alexidine dihydrochloride) during EAE and CIA induction.

T1 sequence (Q8IVH8 whole entry, the tested form may be a part): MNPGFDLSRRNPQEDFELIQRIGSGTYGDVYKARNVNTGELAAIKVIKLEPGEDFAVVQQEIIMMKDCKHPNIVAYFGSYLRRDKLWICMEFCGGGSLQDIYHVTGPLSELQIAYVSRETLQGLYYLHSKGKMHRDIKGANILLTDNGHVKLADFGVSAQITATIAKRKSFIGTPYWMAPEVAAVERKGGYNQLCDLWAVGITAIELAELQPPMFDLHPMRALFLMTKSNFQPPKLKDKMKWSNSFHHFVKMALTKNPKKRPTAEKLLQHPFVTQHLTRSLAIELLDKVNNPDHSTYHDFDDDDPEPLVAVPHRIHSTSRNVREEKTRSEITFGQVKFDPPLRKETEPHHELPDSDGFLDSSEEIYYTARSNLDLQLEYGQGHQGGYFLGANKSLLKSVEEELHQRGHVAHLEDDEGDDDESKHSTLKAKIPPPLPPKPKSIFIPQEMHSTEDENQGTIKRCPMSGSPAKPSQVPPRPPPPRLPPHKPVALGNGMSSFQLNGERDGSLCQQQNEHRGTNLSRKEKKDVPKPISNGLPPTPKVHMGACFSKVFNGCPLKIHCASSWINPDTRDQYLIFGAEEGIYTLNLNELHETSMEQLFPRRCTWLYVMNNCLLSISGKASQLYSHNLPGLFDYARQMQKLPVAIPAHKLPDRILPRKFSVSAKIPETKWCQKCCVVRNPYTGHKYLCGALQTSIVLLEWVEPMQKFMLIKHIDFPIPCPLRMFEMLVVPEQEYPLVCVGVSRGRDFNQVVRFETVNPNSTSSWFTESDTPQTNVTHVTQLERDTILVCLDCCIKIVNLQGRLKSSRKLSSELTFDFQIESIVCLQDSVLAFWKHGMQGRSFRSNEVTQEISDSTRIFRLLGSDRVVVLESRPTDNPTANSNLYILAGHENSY

FRET signals of GLK−IQGAP1 interaction (GLK−IQGAP1 interaction) | SMILES | tumor growth (mean tumor volume) (TC-1 lung cancer cells) | disease severity (clinical score) in EAE (EAE in wild-type mice) | serum IL-17A levels in EAE (EAE in wild-type mice)
inhibited | C=Cc1c(C)c2cc3nc(cc4[nH]c(cc5nc(cc1[nH]2)C(C)=C5CCC(=O)O)c(CCC(=O)OC)c4C)[C@@]1(C)C3=CC=C(C(=O)OC)[C@H]1C(=O)OC [C1, verteporfin] | suppressed | significantly suppressed | significantly suppressed
inhibited | CCCCC(CC)CNC(=N)NC(=N)NCCCCCCNC(=N)NC(=N)NCC(CC)CCCC (centres unmarked) [C2, alexidine dihydrochloride] | suppressed | significantly suppressed | significantly suppressed
